Data on 59 compounds can be found in the METLIN SMRT retention time set (Domingo-Almenara et al. 2019).

This data set is described as follows: gradient 5% acetonitrile 3 min, to 50% in 2 min, to 85% in 15 min, held 3 min, 100 µL/min. The following applies: column: Zorbax Extend-C18 2.1 x 50 mm; eluents: water / acetonitrile, 0.1% formic acid. In outline:
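The mobile phases were water and acetonitrile, each with 0.1% formic acid, pumped at 100 μL/min through a Zorbax Extend-C18 column (2.1 × 50 mm, 1.8 μm). Pure standards were injected as mixtures of ~100 molecules and detected by a quadrupole time-of-flight mass spectrometer in positive and negative ionization mode. Retention time came from computationally picked adduct peaks, each inspected by hand.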
`CCOC(=O)C1=C(CN2CCC(C(=O)OCC)CC2)NC(=O)NC1c1ccc(C)cc1` (centres undefined) registered an RP-LC retention time of 665 s.

Take `O=C(Nc1ccc(F)c(Cl)c1)c1cn2c(n1)CSCC2`: the RP-LC retention time came out at 807 s.

Compound `O=C(c1ccco1)N1CC(Oc2ccc(-c3nc(-c4ccccc4)no3)cc2)C1` came in with an RP-LC retention time of 856 s.

Compound `Cc1ccc(CNC(=O)C2CCCN2S(=O)(=O)c2cc3c(cc2Cl)NC(=O)CO3)cc1` (centres undefined) showed an RP-LC retention time of 786 s.

`COc1ccc(-c2c(NC(=O)c3ccco3)n(-c3ccccc3)nc(C)c2=O)cc1` registered an RP-LC retention time of 674 s.

Turning to `O=C1Nc2ccccc2NC12CCOCC2`, the RP-LC retention time was 631 s.

Regarding `COc1cccc(Cn2nc(-c3nc(-c4cccc(Cl)c4)no3)ccc2=O)c1`, the RP-LC retention time is 1180 s.

For `COCCNC(=O)c1nn(-c2ccc(Cl)cc2)nc1CO`, the RP-LC retention time is 792 s.

`CN(CCCNC(=O)C1CCCN(C(=O)c2cccc(Cl)c2)C1)c1ccccc1` (centres undefined) showed an RP-LC retention time of 676 s.

Consider `O=C(Oc1ccccc1)N1CCC(CNS(=O)(=O)c2ccc(F)c(Cl)c2)CC1`, for which the RP-LC retention time is 951 s.

Compound `CC(C)NC[C@@H](C(=O)N1CCN(c2ncnc3c2[C@H](C)C[C@H]3O)CC1)c1ccc(Cl)cc1` yielded an RP-LC retention time of 610 s.

Turning to `CC1CCN(C(=O)C2CCN(c3nc4ccc(-c5cccnc5)nc4s3)CC2)CC1`, the RP-LC retention time worked out at 630 s.

`CC(NC(=O)CCc1ccc2[nH]ccc2c1)c1ccccc1` (centres undefined) gave an RP-LC retention time of 812 s.

`O=C(NCCCc1ccccc1)C1CCCN(c2nccnc2Sc2ccccc2)C1` (centres undefined) showed an RP-LC retention time of 1090 s.

For the compound `O=C(c1ccco1)N1CCN(c2ncnc3sc(-c4ccccc4)cc23)CC1`, the RP-LC retention time turned out to be 840 s.

Compound `O=C(Nc1ccccc1)N1CCC(n2c(-c3ccoc3)nc3cccnc32)C1` (centres undefined) displayed an RP-LC retention time of 712 s.

Take `COc1ccccc1NC(=O)C1CCN(S(=O)(=O)c2cc(-c3noc(C)n3)cs2)CC1`: the RP-LC retention time worked out at 918 s.

For the compound `O=C(CSc1ccc(N2CCCC(C(=O)NC3CC3)C2)nn1)Nc1ccccc1Cl` (centres undefined), the RP-LC retention time stood at 673 s.

As to `Fc1ccc(Cn2cc(-c3noc(-c4ccccc4)n3)nn2)cc1`, the RP-LC retention time is 994 s.

`O=C(Nc1ccc(F)c(F)c1)c1cc(C2CC2)on1`: the RP-LC retention time amounted to 860 s.

`O=C(COc1cccc2c1CCN(Cc1ccc(F)cc1)C2=O)Nc1ccc2c(c1)OCO2` registered an RP-LC retention time of 846 s.

On to `O=C(NC1CCCCC1)N1CC(F)(F)C[C@H]1CN1CCc2ccccc2C1`, for which the RP-LC retention time came out at 792 s.

Consider `Cc1cc(C)cc(N2CCC(NC(=O)Nc3cccc(F)c3C)C2=O)c1` (centres undefined), for which the RP-LC retention time is 938 s.

As for `Cc1ccc(-c2ccc3nn(CC(=O)Nc4ccc(C)cc4Br)c(=O)n3n2)cc1`, the RP-LC retention time is 960 s.

Compound `C[C@@]1(O)CCN(Cc2cccc(C#N)c2)C[C@H]1N1CCCC1` showed an RP-LC retention time of 541 s.

`Cc1nc(CCNC(=O)[C@H]2CCCN2C(=O)c2ccc(F)cc2)cs1`: the RP-LC retention time turned out to be 627 s.

Regarding `O=C(C1CC1)N1c2ccccc2CC1c1nc(C2CC2)no1` (centres undefined), the RP-LC retention time worked out at 908 s.

With `Cc1nc(-c2ccc3c(c2)n(CC(=O)NC2CCCCCCC2)c(=O)n3C(C)C)no1`, the RP-LC retention time is 945 s.

As for `COCCCNC(=O)N1CCCC1c1nc(-c2cccc(Cl)c2)no1` (centres undefined), the RP-LC retention time is 853 s.

Turning to `CCCn1nnc(NCc2ccc(-c3ccc(Cl)cc3Cl)o2)n1`, the RP-LC retention time came to 1200 s.

`O=c1c2nc(-c3ccc(Br)cc3)cn2ccn1-c1cccc(F)c1` returned an RP-LC retention time of 898 s.

For `Cc1c(Cl)cccc1Nc1c(-c2ccccc2)nc2cnccn12`, the RP-LC retention time was determined as 997 s.

Regarding `COCCOC(=O)C1=C(C)NC2=C(C(=O)C(C(=O)OC)C(C)C2)C1c1ccccc1F` (centres undefined), the RP-LC retention time was found to be 806 s.

Consider `CS(=O)(=O)N1CCC(C(=O)NC2CCCCCC2)Oc2ccc(Cl)cc21` (centres undefined), for which the RP-LC retention time worked out at 991 s.

On to `CCOc1ccccc1CNC(=O)C1CCN(S(=O)(=O)c2ccc3c(c2)NC(=O)CO3)CC1`, for which the RP-LC retention time is 757 s.

As for `COC(=O)c1ccccc1NC(=O)c1nnn(-c2cc(C)ccc2Cl)c1C`, the RP-LC retention time was found to be 1230 s.

`CCCCN(Cc1nc2nc(C)cc(C)n2n1)C(=O)c1ccco1`: the RP-LC retention time is 720 s.

Take `COc1ccc(S(=O)(=O)N2CC3CN(C(=O)C(C)Oc4ccccc4)CC(C2)O3)cc1` (centres undefined): the RP-LC retention time worked out at 844 s.

Consider `CCc1noc(NC(C)=O)c1-c1ccc(OC)c(S(=O)(=O)N2CCC(C)CC2)c1`, for which the RP-LC retention time is 864 s.

In the case of `CCOc1ccc(CNC(=O)Cc2csc3nc(-c4ccc(C)c(C)c4)cn23)cc1`, the RP-LC retention time came to 847 s.

As to `CC(C)(C)OC(=O)N1CCN(c2ncc(C(=O)NCc3ccccc3)c(N)n2)CC1`, the RP-LC retention time is 743 s.

In the case of `Cc1cc(C)cc(NC(=O)Cc2ccc(OC(C)(C)C(=O)O)cc2)c1`, the RP-LC retention time was 969 s.

Turning to `CCCNC(=O)C1CCCN(c2ccc(SCC(=O)Nc3cc(F)ccc3F)nn2)C1` (centres undefined), the RP-LC retention time worked out at 698 s.

`Cc1ccc(-c2nc(-c3ccc4nnn(C)c4c3)no2)cc1C` displayed an RP-LC retention time of 1170 s.

In turn, `CCN1CCN(c2cc(C(=O)O)c3cc(NS(=O)(=O)c4ccc(C(C)C)cc4)ccc3n2)CC1` showed an RP-LC retention time of 724 s.

In turn, `Cn1c(=O)c(-c2ccc(C(=O)NCC3CCCO3)cc2)nc2ccccc21` (centres undefined) had an RP-LC retention time of 724 s.

`O=c1n(Cc2ccccc2F)nc2c(S(=O)(=O)N3CCN(c4ccc(F)cc4)CC3)cccn12` displayed an RP-LC retention time of 969 s.

In the case of `Cc1cc(C)n(Cc2ccc(C(=O)N3C[C@H]4C[C@H](C3)[C@H]3CCCC(=O)N3C4)o2)n1`, the RP-LC retention time came out at 630 s.

With `O=c1ccn(-c2ccc(Cl)cc2)nc1-c1nc(-c2ccc(F)cc2)no1`, the RP-LC retention time amounted to 929 s.

`O=C(C1CC(=O)N(C2CCCCC2)C1)N1CCCCCC1` (centres undefined) showed an RP-LC retention time of 763 s.

The compound `CCCOc1nc2ccccc2nc1N1CCCC(C(=O)NCc2ccccc2)C1` (centres undefined) returned an RP-LC retention time of 1180 s.

With `CCc1ccc(NS(=O)(=O)c2ccc3c(c2)C(=O)N(CC)c2ncccc2O3)cc1`, the RP-LC retention time was found to be 1020 s.

`Cc1ncoc1C(=O)N1CCOc2ccc(NC(=O)C3CC3)cc2C1` had an RP-LC retention time of 659 s.

The compound `Cc1ccc(NC(=O)NCCn2c(C(F)(F)F)nc3cccnc32)cc1F` came in with an RP-LC retention time of 786 s.

Turning to `CCCCC(=O)Nc1ccc2c(c1)nc(CN1CCN(C(=O)c3ccco3)CC1)n2C`, the RP-LC retention time is 619 s.

For `Cc1ccc(C(N)=Nc2ccccc2)cc1`, the RP-LC retention time was 650 s.

`COc1ccc(-c2nnc(-c3ccccc3)o2)cc1S(=O)(=O)NC(C)(C)CO` returned an RP-LC retention time of 759 s.

The compound `COc1nn(C)cc1C(=O)NCc1ccco1` displayed an RP-LC retention time of 599 s.

`Cc1ccccc1OCc1nc(-c2cccc(-c3ccnn3C)c2)no1` returned an RP-LC retention time of 1130 s.
